PubChem BioAssay (NCI)
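GI50 marks 50% less growth. TGI denotes the concentration required for complete inhibition of growth.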

Columns and labels:
Experiment in all cases: NCI tumour cell line growth inhibition, 384-well format
786-0 renal = tested on: 786-0 renal
A498 renal = tested on: A498 renal
A549 NSCLC = tested on: A549 NSCLC
ACHN renal = tested on: ACHN renal
BT-549 breast = tested on: BT-549 breast
CAKI-1 renal = tested on: CAKI-1 renal
CCRF-CEM leukemia = tested on: CCRF-CEM leukemia
COLO 205 colon = tested on: COLO 205 colon
DU-145 prostate = tested on: DU-145 prostate
EKVX NSCLC = tested on: EKVX NSCLC
HCC-2998 colon = tested on: HCC-2998 colon
HCT-15 colon = tested on: HCT-15 colon
HL-60(TB) leukemia = tested on: HL-60(TB) leukemia
HOP-62 NSCLC = tested on: HOP-62 NSCLC
HOP-92 NSCLC = tested on: HOP-92 NSCLC
HS 578T breast = tested on: HS 578T breast
HT29 colon = tested on: HT29 colon
IGROV1 ovarian = tested on: IGROV1 ovarian
K-562 leukemia = tested on: K-562 leukemia
KM12 colon = tested on: KM12 colon
LOX IMVI melanoma = tested on: LOX IMVI melanoma
M14 melanoma = tested on: M14 melanoma
MALME-3M melanoma = tested on: MALME-3M melanoma
MCF7 breast = tested on: MCF7 breast
MDA-MB-231 breast = tested on: MDA-MB-231 breast
MDA-MB-435 melanoma = tested on: MDA-MB-435 melanoma
MDA-MB-468 breast = tested on: MDA-MB-468 breast
MOLT-4 leukemia = tested on: MOLT-4 leukemia
NCI-H226 lung = tested on: NCI-H226 lung
NCI-H23 lung = tested on: NCI-H23 lung
NCI-H322M lung = tested on: NCI-H322M lung
NCI-H460 NSCLC = tested on: NCI-H460 NSCLC
NCI-H522 lung = tested on: NCI-H522 lung
NCI/ADR-RES ovarian = tested on: NCI/ADR-RES ovarian
OVCAR-3 ovarian = tested on: OVCAR-3 ovarian
OVCAR-4 ovarian = tested on: OVCAR-4 ovarian
OVCAR-5 ovarian = tested on: OVCAR-5 ovarian
OVCAR-8 ovarian = tested on: OVCAR-8 ovarian
PC-3 prostate = tested on: PC-3 prostate
RPMI-8226 leukemia = tested on: RPMI-8226 leukemia
RXF 393 renal = tested on: RXF 393 renal
SF-268 CNS = tested on: SF-268 CNS
SF-295 CNS = tested on: SF-295 CNS
SF-539 CNS = tested on: SF-539 CNS
SK-MEL-28 melanoma = tested on: SK-MEL-28 melanoma
SK-MEL-5 melanoma = tested on: SK-MEL-5 melanoma
SK-OV-3 ovarian = tested on: SK-OV-3 ovarian
SNB-19 CNS = tested on: SNB-19 CNS
SNB-75 CNS = tested on: SNB-75 CNS
SR leukemia = tested on: SR leukemia
SW-620 colon = tested on: SW-620 colon
T-47D breast = tested on: T-47D breast
TK-10 renal = tested on: TK-10 renal
UACC-257 melanoma = tested on: UACC-257 melanoma
UACC-62 melanoma = tested on: UACC-62 melanoma
UO-31 renal = tested on: UO-31 renal

Cn1c(=O)n(-c2ccc(C(C)(C)C#N)cc2)c2c3cc(-c4cnc5ccccc5c4)ccc3ncc21
GI50 ([…]-0 renal): < 10 nM | TGI (786-0 renal): 1190 nM | GI50 (A498 renal): < 10 nM | TGI (A498 renal): 16.8 nM | GI50 (A549 NSCLC): < 10 nM | TGI (A549 NSCLC): 1330 nM | GI50 (ACHN renal): < 10 nM | TGI (ACHN renal): > 100 µM | GI50 (BT-549 breast): < 10 nM | TGI (BT-549 breast): 62.8 nM | GI50 (CAKI-1 renal): 12.7 nM | TGI (CAKI-1 renal): > 100 µM | GI50 (CCRF-CEM leukemia): < 10 nM | TGI (CCRF-CEM leukemia): 103 nM | GI50 (COLO 205 colon): 21.5 nM | TGI (COLO 205 colon): 262 nM | GI50 (DU-145 prostate): < 10 nM | TGI (DU-145 prostate): > 100 µM | GI50 (EKVX NSCLC): < 10 nM | TGI (EKVX NSCLC): 85.1 nM | GI50 (HCC-2998 colon): < 10 nM | TGI (HCC-2998 colon): 480 nM | GI50 (HCT-15 colon): < 10 nM | TGI (HCT-15 colon): > 100 µM | GI50 (HL-60(TB) leukemia): 104 nM | TGI (HL-60(TB) leukemia): 1110 nM | GI50 (HOP-62 NSCLC): < 10 nM | TGI (HOP-62 NSCLC): 191 nM | GI50 (HOP-92 NSCLC): < 10 nM | TGI (HOP-92 NSCLC): 64.2 nM | GI50 (HS 578T breast): < 10 nM | TGI (HS 578T breast): 19.8 nM | GI50 (HT29 colon): 29.5 nM | TGI (HT29 colon): > 100 µM | GI50 (IGROV1 ovarian): < 10 nM | TGI (IGROV1 ovarian): 28.6 nM | GI50 (K-562 leukemia): 13.9 nM | TGI (K-562 leukemia): 12.8 µM | GI50 (KM12 colon): 13.5 nM | TGI (KM12 colon): 1290 nM | GI50 (LOX IMVI melanoma): < 10 nM | TGI (LOX IMVI melanoma): 69.8 nM | GI50 (M14 melanoma): 13.6 nM | TGI (M14 melanoma): 599 nM | GI50 (MALME-3M melanoma): < 10 nM | TGI (MALME-3M melanoma): 23 nM | GI50 (MCF7 breast): < 10 nM | TGI (MCF7 breast): 185 nM | GI50 (MDA-MB-231 breast): < 10 nM | TGI (MDA-MB-231 breast): > 100 µM | GI50 (MDA-MB-435 melanoma): 17.6 nM | TGI (MDA-MB-435 melanoma): 492 nM | GI50 (MDA-MB-468 breast): < 10 nM | TGI (MDA-MB-468 breast): 30.4 nM | GI50 (MOLT-4 leukemia): < 10 nM | TGI (MOLT-4 leukemia): 86 nM | GI50 (NCI-H226 lung): < 10 nM | TGI (NCI-H226 lung): 62.3 nM | GI50 (NCI-H23 lung): 34.5 nM | TGI (NCI-H23 lung): 723 nM | GI50 (NCI-H322M lung): 12.1 nM | TGI (NCI-H322M lung): 2560 nM | GI50 (NCI-H460 NSCLC): < 10 nM | TGI (NCI-H460 NSCLC): 532 nM | GI50 (NCI-H522 lung): 10.4 nM | TGI (NCI-H522 lung): 237 nM | GI50 (NCI/ADR-RES ovarian): 29.7 nM | TGI (NCI/ADR-RES ovarian): 8.07 µM | GI50 (OVCAR-3 ovarian): 12.3 nM | TGI (OVCAR-3 ovarian): 1700 nM | GI50 (OVCAR-4 ovarian): < 10 nM | TGI (OVCAR-4 ovarian): 27.2 nM | GI50 (OVCAR-5 ovarian): 13.3 nM | TGI (OVCAR-5 ovarian): 298 nM | GI50 (OVCAR-8 ovarian): < 10 nM | TGI (OVCAR-8 ovarian): > 100 µM | GI50 (PC-3 prostate): < 10 nM | TGI (PC-3 prostate): 2110 nM | GI50 (RPMI-8226 leukemia): < 10 nM | GI50 (RXF 393 renal): < 10 nM | TGI (RXF 393 renal): > 100 µM | GI50 (SF-268 CNS): 19.4 nM | TGI (SF-268 CNS): 3.36 µM | GI50 (SF-295 CNS): < 10 nM | TGI (SF-295 CNS): 31.5 nM | GI50 (SF-539 CNS): < 10 nM | TGI (SF-539 CNS): 707 nM | GI50 (SK-MEL-28 melanoma): 13.5 nM | TGI (SK-MEL-28 melanoma): 95 nM | GI50 (SK-MEL-5 melanoma): 12.7 nM | TGI (SK-MEL-5 melanoma): 41.1 nM | GI50 (SK-OV-3 ovarian): < 10 nM | TGI (SK-OV-3 ovarian): 60.2 nM | GI50 (SNB-19 CNS): 40.8 nM | TGI (SNB-19 CNS): > 100 µM | GI50 (SNB-75 CNS): < 10 nM | TGI (SNB-75 CNS): 80.9 nM | GI50 (SR leukemia): < 10 nM | TGI (SR leukemia): 17.2 nM | GI50 (SW-620 colon): 28.2 nM | TGI (SW-620 colon): > 100 µM | GI50 (T-47D breast): < 10 nM | TGI (T-47D breast): 19.7 nM | GI50 (TK-10 renal): 23.9 nM | TGI (TK-10 renal): 126 nM | GI50 (UACC-257 melanoma): 21.4 nM | TGI (UACC-257 melanoma): 93.7 nM | GI50 (UACC-62 melanoma): < 10 nM | TGI (UACC-62 melanoma): 101 nM | GI50 (UO-31 renal): 19.6 nM | TGI (UO-31 renal): > 100 µM
